Results on 11 molecules are retold here after patent publication US4479951A, “1.4;3.6-Dianhydrohexitol nitrates substituted by purine bases, processes for their preparation and pharmaceutical compositions” (Dr. Willmar Schwabe GmbH & Co., priority 1980, dated 1984).

In one series the test system is guinea pigs. In words: blood pressure-lowering effectiveness on narcotised guinea pigs, intravenous. The series is classed as in vivo, guinea pig. The note with it: for blood pressure previously: before administration.
Series [1] can be described thus: acute toxicity, intravenous. The series is classed as in vivo. The following applies: mouse, in vivo, iv; within 24 hours; read-out: Evaluated LD50-range.
The test system of the next series is female NMRI-albino mice. The series can be described thus: acute toxicity, intravenous. The series is classed as in vivo. The note with it: within 24 hours.
The subject of series [2] is isolated rat aorta preparations. In words: spasmolytic effectiveness, noradrenaline-induced contractions. The note with it: read-out: ED50 noradrenaline spasm.
Series [3] shares this test system. In words: spasmolytic effectiveness, potassium chloride-induced contractions. The following applies: read-out: ED50 potassium chloride spasm.

Consider `CNc1ncnc2c1ncn2[C@H]1CO[C@H]2[C@@H]1OC[C@@H]2O[N+](=O)[O-]` [Example 3c, 5-(6-Methylaminopurin-9-yl)-5-desoxy-1.4;3.6-dianhydro-L-iditol 2-nitrate], for which the blood pressure afterwards with guinea pigs (0.25 mg/kg i.v.) was found to be 79.25 ± 2.56 mm. Hg; in the series on guinea pigs (1.00 mg/kg i.v.), 71.50 ± 3.97 mm. Hg; in the series with guinea pigs (2.50 mg/kg i.v.) it was 61.50 ± 3.23 mm. Hg. Further, the “blood pressure Δ” value in the series with guinea pigs (0.25 mg/kg i.v.) was -0.25 mm. Hg; in the series on guinea pigs (1.00 mg/kg i.v.), -8.00 mm. Hg; with guinea pigs (2.50 mg/kg i.v.) it was -15.50 mm. Hg. In addition, the blood pressure previously with guinea pigs (0.25 mg/kg i.v.) amounted to 79.50 ± 2.50 mm. Hg; in the series with guinea pigs (1.00 mg/kg i.v.) it was 79.50 ± 2.66 mm. Hg; in the series on guinea pigs (2.50 mg/kg i.v.) it was 77.00 ± 2.80 mm. Hg. Moreover, the LD50 at 24 h in series [1] was 100 to 200 mg/kg. Besides, the Frequency of death in the series with female NMRI-albino mice (100 mg/kg i.v.) is given as 0/6; in the series with female NMRI-albino mice (200 mg/kg i.v.) it was 3/3. Further, the figures for the IC50 in series [2] and in series [3] were 480 nM and 4.6 µM, respectively.
On to `CN(C)c1ncnc2c1ncn2[C@H]1CO[C@H]2[C@@H]1OC[C@@H]2O[N+](=O)[O-]` [Example 4b, 5-(6-Dimethylaminopurin-9yl)-5-desoxy-1.4;3.6-dianhydro-L-iditol 2-nitrate], for which the blood pressure afterwards with guinea pigs (0.25 mg/kg i.v.) is 63.25 ± 4.23 mm. Hg; in the series on guinea pigs (1.00 mg/kg i.v.), 59.00 ± 1.47 mm. Hg; in the series with guinea pigs (2.50 mg/kg i.v.) it was 43.50 ± 2.50 mm. Hg. For the same molecule, the “blood pressure Δ” value with guinea pigs (0.25 mg/kg i.v.) was -10.50 mm. Hg; in the series with guinea pigs (1.00 mg/kg i.v.), -15.00 mm. Hg; in the series on guinea pigs (2.50 mg/kg i.v.), -28.50 mm. Hg. Further, the blood pressure previously turned out to be 73.75 ± 2.14 mm. Hg with guinea pigs (0.25 mg/kg i.v.), 74.00 ± 1.91 mm. Hg with guinea pigs (1.00 mg/kg i.v.) and 72.00 ± 2.45 mm. Hg in the series on guinea pigs (2.50 mg/kg i.v.). Further, in series [1], the LD50 at 24 h lay in the range of 50 to 100 mg/kg. Also, the Frequency of death with female NMRI-albino mice (50 mg/kg i.v.) was 0/3; in the series on female NMRI-albino mice (100 mg/kg i.v.) it was 3/3; in the series with female NMRI-albino mice (200 mg/kg i.v.), 3/3. Also, the IC50 in series [2] is 220 nM; in series [3], 29 µM.
For the molecule `CCNc1ncnc2c1ncn2[C@H]1CO[C@H]2[C@@H]1OC[C@@H]2O[N+](=O)[O-]` [Example 5b, 5-(6-Ethylaminopurin-9-yl)-5-desoxy-1.4;3.6-dianhydro-L-iditol 2-nitrate], the blood pressure afterwards in the series on guinea pigs (0.25 mg/kg i.v.) came out at 71.00 ± 5.04 mm. Hg; in the series on guinea pigs (1.00 mg/kg i.v.), 65.75 ± 3.75 mm. Hg; with guinea pigs (2.50 mg/kg i.v.), 51.00 ± 3.13 mm. Hg. The “blood pressure Δ” value is -5.50 mm. Hg in the series on guinea pigs (0.25 mg/kg i.v.), -12.75 mm. Hg in the series with guinea pigs (1.00 mg/kg i.v.) and -25.25 mm. Hg in the series with guinea pigs (2.50 mg/kg i.v.). Besides, the blood pressure previously in the series on guinea pigs (0.25 mg/kg i.v.) stood at 76.50 ± 2.66 mm. Hg; in the series with guinea pigs (1.00 mg/kg i.v.) it was 78.50 ± 1.70 mm. Hg; in the series on guinea pigs (2.50 mg/kg i.v.) it was 76.25 ± 2.59 mm. Hg. Moreover, the LD50 at 24 h in series [1] was in the range of 50 to 100 mg/kg. For the same molecule, the Frequency of death in the series on female NMRI-albino mice (50 mg/kg i.v.) is listed as 1/11; with female NMRI-albino mice (100 mg/kg i.v.) it was 3/6; with female NMRI-albino mice (200 mg/kg i.v.), 3/3. The values for the IC50 in series [2] and in series [3] were 380 nM and 13 µM, respectively.
For the molecule `O=[N+]([O-])O[C@H]1CO[C@H]2[C@@H]1OC[C@@H]2n1cnc2c(N3CCCC3)ncnc21` [Example 6b, 5-(6-Pyrrolidinopurin-9-yl)-5-desoxy-1.4;3.6-dianhydro-L-iditol 2-nitrate], the blood pressure afterwards in the series with guinea pigs (0.25 mg/kg i.v.) is 51.50 ± 4.94 mm. Hg; in the series on guinea pigs (1.00 mg/kg i.v.) it was 44.75 ± 2.84 mm. Hg; with guinea pigs (2.50 mg/kg i.v.) it was 37.25 ± 1.11 mm. Hg. In addition, the figures for the “blood pressure Δ” value in the series on guinea pigs (0.25 mg/kg i.v.), with guinea pigs (1.00 mg/kg i.v.) and with guinea pigs (2.50 mg/kg i.v.) were -13.50 mm. Hg, -20.75 mm. Hg and -24.75 mm. Hg, respectively. In addition, the blood pressure previously was 65.00 ± 4.02 mm. Hg in the series with guinea pigs (0.25 mg/kg i.v.), 65.50 ± 2.36 mm. Hg with guinea pigs (1.00 mg/kg i.v.) and 62.00 ± 2.04 mm. Hg in the series on guinea pigs (2.50 mg/kg i.v.). Also, the LD50 at 24 h in series [1] lay in the range of 50 to 100 mg/kg. Moreover, the Frequency of death is reported as 0/3 in the series with female NMRI-albino mice (50 mg/kg i.v.), 3/3 in the series with female NMRI-albino mice (100 mg/kg i.v.) and 3/3 in the series with female NMRI-albino mice (200 mg/kg i.v.). For the same molecule, the IC50 in series [2] was 540 nM; in series [3], 4.07 µM.
As to `O=[N+]([O-])O[C@H]1CO[C@H]2[C@@H]1OC[C@@H]2n1cnc2c(N3CCCCC3)ncnc21` [Example 7b, 5-(6-Piperidinopurin-9-yl)-5-desoxy-1.4;3.6-dianhydro-L-iditol 2-nitrate], the IC50 worked out at 240 nM in series [2] and 2.9 µM in series [3].
`O=[N+]([O-])O[C@H]1CO[C@H]2[C@@H]1OC[C@@H]2n1cnc2c(N3CCOCC3)ncnc21` [Example 8b, 5-(6-Morpholinopurin-9-yl)-5-desoxy-1.4;3.6-dianhydro-L-iditol 2-nitrate]: the values for the IC50 in series [2] and in series [3] were 290 nM and 3 µM, respectively.
Consider `CN1CCN(c2ncnc3c2ncn3[C@H]2CO[C@H]3[C@@H]2OC[C@@H]3O[N+](=O)[O-])CC1` [Example 9b, 5-[6-(4-Methylpiperazino)-purin-9-yl]-5-desoxy-1.4;3.6-dianhydro-L-iditol 2-nitrate], for which the blood pressure afterwards with guinea pigs (0.25 mg/kg i.v.) came out at 70.25 ± 8.39 mm. Hg; in the series on guinea pigs (1.00 mg/kg i.v.), 69.75 ± 7.44 mm. Hg; with guinea pigs (2.50 mg/kg i.v.), 59.75 ± 4.82 mm. Hg. Further, the entries for the “blood pressure Δ” value with guinea pigs (0.25 mg/kg i.v.), in the series on guinea pigs (1.00 mg/kg i.v.) and in the series with guinea pigs (2.50 mg/kg i.v.) were -2.25 mm. Hg, -3.50 mm. Hg and -12.75 mm. Hg, respectively. Moreover, the blood pressure previously in the series on guinea pigs (0.25 mg/kg i.v.) was 72.50 ± 6.20 mm. Hg; with guinea pigs (1.00 mg/kg i.v.), 73.25 ± 6.24 mm. Hg; with guinea pigs (2.50 mg/kg i.v.) it was 72.50 ± 5.24 mm. Hg. For the same molecule, the LD50 at 24 h in series [1] was in the range of 50 to 100 mg/kg. Besides, the Frequency of death with female NMRI-albino mice (100 mg/kg i.v.) is 4/6; with female NMRI-albino mice (200 mg/kg i.v.), 3/3. Further, the IC50 in series [2] was determined as 2650 nM; in series [3], 25 µM.
In the case of `CC(C)(C)C(=O)Nc1ncnc2c1ncn2[C@H]1CO[C@H]2[C@@H]1OC[C@@H]2O[N+](=O)[O-]` [Example 10, 5-[9-(6-N-Pivaloyl)-adenyl]-5-desoxy-1.4;3.6-dianhydro-L-iditol 2-nitrate], the figures for the IC50 in series [2] and in series [3] were 302 nM and 6.5 µM, respectively.
Regarding `Cn1c(=O)c2c(ncn2[C@H]2CO[C@H]3[C@@H]2OC[C@@H]3O[N+](=O)[O-])n(C)c1=O` [Example 12b, 5-(7-Theophyllinyl)-5-desoxy-1.4;3.6-dianhydro-L-iditol 2-nitrate], the figures for the IC50 in series [2] and in series [3] were 3200 nM and 4.2 µM, respectively.
With `O=[N+]([O-])O[C@H]1CO[C@H]2[C@@H]1OC[C@@H]2n1cnc2c(NCc3ccccc3)ncnc21` [Example 13b, 5-(6-Benzylaminopurin-9-yl)-5-desoxy-1.4;3.6-dianhydro-L-iditol 2-nitrate], the values for the IC50 in series [2] and in series [3] were 16.8 nM and 2.4 µM, respectively.
As for `O=[N+]([O-])O[C@@H]1CO[C@H]2[C@@H]1OC[C@@H]2O` [ISMN, 1.4;3.6-dianhydro-D-glucitol 2-nitrate, reference compound], the blood pressure afterwards is 53.90 ± 3.10 mm. Hg in the series with guinea pigs (0.25 mg/kg i.v.), 48.40 ± 3.20 mm. Hg in the series on guinea pigs (1.00 mg/kg i.v.) and 41.40 ± 3.90 mm. Hg with guinea pigs (2.50 mg/kg i.v.). Further, the results for the blood pressure previously in the series on guinea pigs (0.25 mg/kg i.v.), in the series on guinea pigs (1.00 mg/kg i.v.) and in the series with guinea pigs (2.50 mg/kg i.v.) were 57.60 ± 3.10 mm. Hg, 54.70 ± 3.80 mm. Hg and 52.30 ± 4.80 mm. Hg, respectively.
